# Reference: patent publication US12071421B2, “Process for the synthesis of substituted chloromethyl dialkylphosphates” (HELSINN HEALTHCARE SA, priority 2011, dated 2024)
# Assays:
# [1] = Stability studies of GA1 parent acid species and its salts (degradation on storage)
# Method: Their synthesis employed either a) neutralization of the dried diacid phosphate species and its corresponding base salts or b) a direct acid deprotection starting from the dried di(tert-butyl)-protected phosphate species. Neutralization was performed with L-histidine, magnesium salt, N-methyl-D-glucamine (dimeglumine), and L-lysine. Both procedures were tried in the synthesis of citric derivatives whereas with other acids the direct deprotection reaction was used. The figures below show the most relevant structures.
# Alphabetical letters are used to denote data points on the graph that correspond to degradation percentage values over time for respective salts of the same parent compound as just described above and in Table 2 below.
# [2] = Chemical stability according to ICH guidelines under accelerated conditions (40° C.); type: physicochemical
# Method: Stability was tested according to ICH guidelines under accelerated conditions (40° C.).
# [3] = Aqueous solubility (neutral pH); type: physicochemical; conditions: for solubility: aqueous medium
# [4] = Dog PKs study / comparative bioequivalence (IV vs oral netupitant); type: in vivo, Beagle dogs
# Method: The pharmacokinetics (PKs) study of three compounds (e.g., compound nos. 1-3 of the above Table 3), as compared to a reference compound—netupitant (orally administered), on rat and dog was conducted.
# Dog PKs Study: the dogs tested in the study were Beagle dogs, body weight 8-10 kg, and 3 male dogs per group. The four PK experiments were performed in 12 naïve dogs. The dose was 3 mg/kg administered via intravenous (IV) slow injection into the left and right cephalic or left and right saphenous veins used in rotation. […] The dose was administered to each animal on the basis of the most recently recorded body weight and the volume administered was recorded for each animal. Netupitant 3 mg/kg dose was tested at 2 ml/kg in vehicle (DMSO:Ethanol:Tween80 solution=[…], v/v), dependence on its solubility. Dose was freshly prepared before each single PK experiment. Before administration, dogs were fasted 12 hr, water ad libitum. After 480 min time point blood was collected, dogs were fed. 0.5 ml blood was collected in heparinised tubes at pre-dose and at 2, 5, 15, 30 min, 1, 2, 4, 6, 8, 12, 24, 36, 48 and 72 hr after intravenous administration. […] Prepared quantification standard curve at 2, 10, 40, 100, 200, 1000 and 2000 ng/ml (diluted from methanol stock with methanol containing 1% formic acid). […] Dog plasma samples were analyzed by using an API4000 MS coupled with HPLC. […]
smiles,measurement,setting,value
"Cc1ccccc1-c1cc(N2CC[N+](C)(COP(=O)([O-])O)CC2)ncc1N(C)C(=O)C(C)(C)c1cc(C(F)(F)F)cc(C(F)(F)F)c1 [1. NaOH, 3 eq. 2. Fumaric acid, 1 eq.]",Degradation,[1]; 12 days,+1.80% in 12 days (in argon)
same,Degradation,[1]; 14 days,+1.95% in 14 days (in air)
Cc1ccccc1-c1cc(N2CC[N+](C)(COP(=O)(O)O)CC2)ncc1N(C)C(=O)C(C)(C)c1cc(C(F)(F)F)cc(C(F)(F)F)c1 [Compound 1],Chemical Stability,[2],medium
same,solubility,[3]; pH 7,10000 to 15000 µg/mL
same,bioequivalence to oral netupitant at the same dose,[4]; IV,bioequivalent
Cc1ccccc1-c1cc(N2CCN(C)CC2)[n+]([O-])cc1N(C)C(=O)C(C)(C)c1cc(C(F)(F)F)cc(C(F)(F)F)c1 [Compound 4],Chemical Stability,[2],medium
same,solubility,[3]; pH 7,~600 µg/mL
"Cc1ccccc1-c1cc([N+]2([O-])CCN(C)CC2)ncc1N(C)C(=O)C(C)(C)c1cc(C(F)(F)F)cc(C(F)(F)F)c1 [Compound 5, reference compound]",Chemical Stability,[2],medium
same,solubility,[3]; pH 7,~1000 µg/mL
Cc1ccccc1-c1cc([N+]2([O-])CCN(C)CC2)[n+]([O-])cc1N(C)C(=O)C(C)(C)c1cc(C(F)(F)F)cc(C(F)(F)F)c1 [Compound 6],Chemical Stability,[2],low
CC(=O)OC[N+]1(C)CCN(c2cc(-c3ccccc3C)c(N(C)C(=O)C(C)(C)c3cc(C(F)(F)F)cc(C(F)(F)F)c3)cn2)CC1 [Compound 7],Chemical Stability,[2],low
same,Solubility (neutral pH),[3],insoluble
CCCC(=O)OC[N+]1(C)CCN(c2cc(-c3ccccc3C)c(N(C)C(=O)C(C)(C)c3cc(C(F)(F)F)cc(C(F)(F)F)c3)cn2)CC1 [Compound 8],Chemical Stability,[2],Low
same,Solubility (neutral pH),[3],insoluble
"Cc1ccccc1-c1cc(N2CCN(C)CC2)ncc1N(C)C(=O)C(C)(C)c1cc(C(F)(F)F)cc(C(F)(F)F)c1 [Compound 9, 2-(3,5-bis(trifluoromethyl)phenyl)-N,2-dimethyl-N-(6-(4-methylpiperazin-1-yl)-4-(o-tolyl)pyridin-3-yl)propanamide, reference compound]",solubility,"[3]; pH 7, unit inferred",250 µg/mL
same,AUC(0-t),"[4]; male, beagle, plasma, PO, 3 mg/kg, read-out: Mean AUC0-t (converted)",5120 ng·h/mL
"Cc1ccccc1-c1cc(N2CC[N+](C)(COP(=O)([O-])O)CC2)ncc1N(C)C(=O)C(C)(C)c1cc(C(F)(F)F)cc(C(F)(F)F)c1 [HBr, 48%, 4 eq.]",Product stability (comment),[1],Product degrades rapidly.
"Cc1ccccc1-c1cc(N2CC[N+](C)(COP(=O)([O-])O)CC2)ncc1N(C)C(=O)C(C)(C)c1cc(C(F)(F)F)cc(C(F)(F)F)c1 [L-lysine, 1 eq.]",Degradation,[1]; 12 days,+0.48% in 12 days (in argon)
same,Degradation,[1]; 14 days,+0.69% in 14 days (in air)
"Cc1ccccc1-c1cc(N2CC[N+](C)(COP(=O)([O-])O)CC2)ncc1N(C)C(=O)C(C)(C)c1cc(C(F)(F)F)cc(C(F)(F)F)c1 [N-methyl-D-glucamine (Meglumine), 2 eq.]",Degradation,[1]; 6 days,+0.87% in 6 days (in air)
same,Degradation,[1]; 11 days,+1.52% in 11 days (in argon)
"Cc1ccccc1-c1cc(N2CC[N+](C)(COP(=O)(O)O)CC2)ncc1N(C)C(=O)C(C)(C)c1cc(C(F)(F)F)cc(C(F)(F)F)c1.Cl.[Cl-] [chloride hydrochloride HCl salt of GA1, 4-(5-(2-(3,5-bis(trifluoromethyl)phenyl)-N,2-dimethylpropanamido)-4-(o-tolyl)pyridin-2-yl)-1-methyl-1-((phosphonooxy)methyl)piperazin-1-ium chloride hydrochloride]",resistance to decoupling of the oxo-phosphonomethyl and reversion of the active moiety to its parent state,[1],tremendously resistant
Cc1ccccc1-c1cc(N2CC[N+](C)(COP(=O)([O-])O)CC2)ncc1N(C)C(=O)C(C)(C)c1cc(C(F)(F)F)cc(C(F)(F)F)c1 [parent acid species],Degradation,[1]; 1 week,over 8
same,Degradation,[1]; 6 months,over 65%
same,total degradation,[1]; 6 months,7.0300
